Results: a melting point compilation (Tetko et al.; mined from patent text by program, amines drawn as free bases though some values may be those of a salt)

Compound	melting point [°C]
CN1CC(CNC(=N)NC(=O)c2ccccc2)CC2c3cccc4[nH]cc(c34)CC21 (centres undefined)	190 to 191
O=C(CC(CC1CCCCC1)C(=O)O)c1ccco1 (centres undefined)	91 to 94
CC(=O)OCC1C(O)C2OC(C)(C)OC2C2NC(=O)c3cc4c(cc3C12)OCO4 (centres undefined)	> 200
C#CCNC(=O)c1c(I)cccc1[Si](C)(C)C	109 to 111
CCOC(=O)C(CCC(=O)O)(CCC(=O)O)C(=O)OCC	120
CSC(=Nc1ccc(Cl)c(Cl)c1)NS(C)(=O)=O	122 to 125
COC(=O)C(C#N)=CC(C)=CN(C)C	163 to 164
O=C1N=NC(=O)c2c1[nH]c1cccc(Br)c21	> 260
O=C(Nc1ccc(O)c(O)c1)C12CC3CC(CC(C3)C1)C2	196 to 199
N#CCCN(C(N)=O)C1CCCCC1	110 to 112
OC(=S)CCCc1nn(-c2ccccc2)c2c1CCCC2	105 to 106
O=C1CNC=Nc2[nH]cnc21	260
COC(=O)CC(=O)c1cc(CN2CCOCC2)sc1Cl	67 to 68
CC(=O)OC1CCc2c(C#N)cccc21 (centres undefined)	65
Nc1ncc([N+](=O)[O-])cc1[N+](=O)[O-]	190 to 191
CC(C)(C)OC(=O)N(C(=N)NS(=O)(=O)C(F)(F)F)C(=O)OC(C)(C)C	114 to 115
S=C(Cc1cccnc1)N1CCOCC1	158 to 160
OC1CSC(Sc2cc(C(F)(F)F)cc(C(F)(F)F)c2)C(O)C1O (centres undefined)	157 to 158
FCc1nc(C#CCCc2cn3cc(F)ccc3n2)cs1	82 to 84
O=C(O)c1ccc(S(=O)(=O)Cl)cc1O	173
COc1cc(C(F)(F)F)cc(Cl)c1-n1nc(C#N)c(SC(C)(F)F)c1N	79
CC(C)(C)OC(=O)C1CCN(C(=O)C2CN(c3ccc(-c4noc(=O)[nH]4)cc3)C(=O)O2)CC1 (centres undefined)	171 to 175
OC[C@H](O)COc1ccccc1OCC1CC1	95 to 97
CN(C)c1c[nH]c2ncccc12	144 to 152

Compound	melting point [°C]
CN1CCN(c2cccc3c2C[C@H](NC(=O)c2ccc(N4CCNCC4)cc2)CO3)CC1	> 102
COC(=O)c1nc(C)n2c1C(C)N=C(c1ccccc1)c1cc(Cl)ccc1-2 (centres undefined)	217 to 221
O=S(=O)(OS(=O)(=O)C1CCCCC1)C1CCCCC1	97 to 100
CN(Cc1ccco1)Cn1cc(C#N)c(-c2cccc(Cl)c2Cl)c1	79 to 80
O=C1CN(c2ccccc2)C(=O)N1CCBr	146 to 147
O=C1NC2Cc3ccccc3C2O1 (centres undefined)	205 to 206
O=[N+]([O-])c1ccc(O)c(CNCCC(F)=C(F)F)c1	96 to 98
CC(C)C(=O)Nc1ccc2oc3c(c2c1)CCCC3	206 to 208
C=CCN1Cc2nc3c(cnn3CCCC#CC)c(N)c2C1=O	138 to 140
OC1CCN(Cc2ccc(Br)cn2)CC1	52 to 54
CC(O)(C#Cc1ccccc1)C(=O)O (centres undefined)	104 to 106
CCCCCCCCCCCCCCCCNC(=O)CCCO	89.5 to 90
COc1ccc2c3c([nH]c2c1)C(=O)N=NC3=O	> 260
COc1cc2c(c3oc(C(=O)O)cc(=O)c13)CCC(C)(C)O2	225 to 226
Brc1cncc(N2C=CCC2)c1	98 to 99
COc1cc2c(cc1OC)C(C=O)c1ccccc1CC2 (centres undefined)	130 to 132
CCN(C(C)=O)c1cccc(-c2ccc3nnc(C)n3n2)c1	180 to 185
CCOC(=O)C(=O)Nc1ncccc1C#N	95 to 97
CCN(C(=O)N(C)C(=O)NC)c1ccccc1	57 to 58
O=c1[nH]c(=O)n2c3c(cccc13)CC2	314 to 315
CC(=O)Nc1ccc(OC2CCC3C4CCC5N(C)C(=O)CCC5(C)C4CCC23C)cc1 (centres undefined)	340
C=CC(=O)NC(=O)NC(=O)CCl	144 to 145
CCOC(=O)N1CCN(C2=C(O)C(=O)c3ccccc3C2=O)CC1	115 to 118
CCCC[Si](C)(C)CCSCCNC(=O)n1cc(F)c(=O)[nH]c1=O	71 to 72

Now from value to compound:

melting point [°C]	Compound
110 to 120	O=C(O)c1ccc(CNC(=O)[C@@H]2Cc3ccccc3N2S(=O)(=O)c2ccc(I)cc2)cc1
226 to 228	O=C1c2cc(O)ccc2CN1c1ccc2sccc2c1
200 to 201	COc1c(N2CCC(n3ccnn3)C2)c(F)cc2c(=O)c(C(=O)O)cn(C3CC3)c12 (centres undefined)
202 to 205	CC1(c2ccc([N+](=O)[O-])cc2)Cc2cc(OCC(=O)O)c(Cl)c(Cl)c2C1=O (centres undefined)
186 to 188	Cc1noc(NS(=O)(=O)c2ccc(-c3ccccn3)s2)c1Br
266 to 267	N#Cc1ccc(-c2cc(-c3ccc(O)c(F)c3)nc3ccc(O)cc23)cc1
191 to 192	CCOC(=O)N1CCN(c2cc3ccccc3c(=O)[nH]2)CC1
83 to 88	CC(C)C[C@H](NC(=O)CCC(=O)c1ccccc1)C(=O)N[C@@H](C(C)C)[C@@H](O)c1c(-c2ccccc2)c1=O
206 to 210	COc1cc2c(C)c(C#N)cnc2cc1OCc1cccnc1
155	O=C(c1ccc(-c2cc(-c3c[nH]nc3-c3ccccn3)ccn2)cc1)N1CCOCC1
106 to 110	O=C(NCc1ccccn1)OC1Cc2ccccc2N(S(=O)(=O)c2ccc(Cl)cc2)C1 (centres undefined)
102	NCCn1c(NC2CCN(Cc3ccccc3)CC2)nc2cccnc21
242 to 244	O=C(c1ccc(-c2ccncc2)cc1)N1CCN(S(=O)(=O)c2nc3ccc(Cl)cc3[nH]2)CC1
180 to 181	Oc1ccc(-c2noc(C3(CSc4ccccc4)CC3)c2-c2ccccc2)cc1
182 to 183	CN(C)c1ccc(C(=CC=CC2N(C)c3ccccc3C2(C)C)c2ccc(N(C)C)cc2)cc1 (centres undefined)
99.5 to 100	CCCc1nc2c(N)nc(C)c(C)c2n1CCOCc1ccccc1
112	N#Cc1ccc(NC2CCN(Cc3cccc(C(F)(F)F)c3)CC2)nc1
127 to 128	COc1cc(Nc2nccc(-c3ccc(N4CCC(O)CC4)nc3)n2)cc(OC)c1OC
125 to 126	CCCc1nn(-c2ccc(C(F)(F)F)cn2)cc1CCCOc1c(CC(=O)O)cnn1CC

melting point [°C]	Compound
187 to 189	O=C(OC1COC(OC(=O)c2ccccc2)CO1)c1ccccc1 (centres undefined)
140 to 142	Cc1cc(C)c(S(=O)(=O)Nc2cccnc2Nc2ccccc2)c(C)c1
266	O=C1OCCCCOC(=O)c2ccc(cc2)-c2ccc1cc2
78 to 80	COc1cc(C)ccc1Oc1ccc([N+](=O)[O-])cc1
216 to 218	CCOC(=O)c1cnc2c3cc(NC(=O)C(C)C(C)CC)ccc3c(C)cn2c1=O (centres undefined)
152 to 153	CCOC(=O)COc1ccc(C2=NNC(=O)NC2C)cc1 (centres undefined)
123 to 125	O=C(O)CN1C(=O)C(O)N(Cc2cccc([N+](=O)[O-])c2)C1=O (centres undefined)
241 to 244	Cc1ccccc1C(=O)Nc1ccc(C(=O)N2Cc3ccnn3Cc3ccccc32)c(Cl)c1
178 to 179	N#Cc1cccc2c1CC(=NN)c1ccc(F)cc1S2
90 to 92	C=CCOc1ccc2c(=O)c(C)c(-c3ccccc3)oc2c1C(=O)C=Cc1cccc(OC)c1
149 to 150	C=Cc1cc(OS(=O)(=O)c2ccc(C)cc2)c(OC)cc1C#N
222 to 224	CCC(=O)N1c2ccccc2NC(=O)c2cscc21
205 to 206	O=[N+]([O-])c1ccc(-n2ccnn2)cc1
165 to 167	CCOc1cc(C(=O)O)cc(N)c1Cc1ccccc1
68	COc1ccc(S(=O)(=O)C(CCCCOc2ccccc2)(Cc2cccnc2)C(=O)NO)cc1 (centres undefined)
195 to 196	Cc1nc(N)c2ncn(CCOCc3ccncc3)c2c1C
60 to 62	N=c1c2ccccc2ccc2ccccc12
82 to 83	COc1ccnc(CS(=O)c2nc3cc(OC(F)F)ccc3n2S(=O)(=O)c2ccc(Cl)cc2)c1OC (centres undefined)
81 to 95	CNC(=O)CN1CCc2cc(Nc3ncc(Cl)c(Nc4ccccc4OC)n3)c(OC)cc2CC1

melting point [°C]	Compound
121 to 123	Cc1cc(C(=O)NCOCc2cccnc2)ncc1C(c1cc(F)ccc1F)S(=O)(=O)c1ccc(F)cc1 (centres undefined)
156 to 158	COc1nc2ccccc2cc1NC(=O)N1CCN(c2ccccc2F)CC1
188 to 190	Cc1ccc(Cn2c(=O)cc(C(C)C(=O)O)c3cc(C)ccc32)cc1 (centres undefined)
142 to 143	CN(C)c1ccc(C(=O)c2ccc(OCCO)cc2)cc1
73 to 74	CCOC(=O)c1c(C)nc(N2CCCCC2)c2nccnc12
90 to 92	CC(C)c1nc2c(c(-c3ccc(F)cc3)c1C(C)O)CCC2(C)C (centres undefined)
142 to 148	Cc1cc(F)ccc1-c1nc(NCCNC(=O)Nc2ccccc2)nc2c1ccc(=O)n2-c1c(F)cccc1F
103 to 104	CN(C)Cc1cccc(OCCCNc2ncc(Cc3cccnc3)c(=O)[nH]2)c1
164 to 166	CC(=O)c1ccc(OCCOc2ccc3ccccc3c2)c(Cl)c1
108 to 109	CCOC(=O)CCc1c(OCCCCCCc2ccc(OC)cc2)ccc2c(=O)c3cc(C(=O)OC)ccc3oc12
151 to 152	Cc1oc(-c2ccccc2)nc1CCOc1ccc(CCC2SC(=O)NC2=O)cc1 (centres undefined)
158 to 160	CCOC(=O)c1c(CCc2ccc(C(F)(F)F)cc2)nc2c(c1-c1ccc(C(=O)N[C@@H](C)c3ccncc3)cc1)C(=O)N1CCC[C@@H]21
96	O=C(O)c1ccc2c(c1)OC(c1cc(F)cc(F)c1)(c1cc(F)cc(F)c1)O2
116 to 118	NNc1nccc(-c2ccccc2)n1
104 to 105	CC(C)c1ccc(OCC(=O)Cl)cc1
143 to 145	O=[N+]([O-])c1ccc(-c2ncnn2-c2ccccc2F)cc1
262 to 264	NC(=O)c1cc(-c2ccc3nnn(Cc4ccc5ncccc5c4)c3n2)ccc1F
126 to 128	CCCCC1=NC(Cl)(COC)CN1Cc1ccc(C(=O)O)cc1 (centres undefined)
